Data from patent publication US9840498B2, “Substituted quinazolin-4-one derivatives” (NOVARTIS AG, priority 2013, dated 2017).

Experiments:
[1] = biological target: human phosphoinositide-3 kinase (PI3K) alpha (Homo sapiens (Human), UniProt P42336); assay: PI3K-mediated Akt 1/2 (S473) phosphorylation in Rat-1 cells overexpressing PI3K alpha; type: cell-based, rat cells expressing human PI3K alpha; conditions: cellular assay, p-AKT(Ser473), read-out: Cell PI3K alpha IC50
Description: (§1) 2.1 Phosphoinositide-3 kinase (PI3K)-Mediated Akt 1/2 (S473) Phosphorylation in Rat-1 Cells
(§2) Rat-1 cells stably overexpressing a myristoylated form of the catalytic subunit of human phosphoinositide-3 kinase (PI3K) alpha, beta or delta were plated in 384-well plates at a density of 7500 (PI3K alpha), 6200 (PI3K beta), or 4000 (PI3K delta) cells in 30 ul complete growth medium (Dulbecco's modified Eagle's medium (DMEM high glucose) supplemented with 10% (v/v) fetal bovine serum, 1% (v/v) MEM non essential amino acids, 10 mM HEPES, 2 mM L-glutamine, 10 μg/mL puromycin and 1% (v/v) Penicillin/Streptomycin) and were incubated at […]/5% CO2/95% humidity for 24 h. Compounds were diluted in 384-well compound plates (compound master plates), to obtain 8-point serial dilutions for 40 test compounds in 90% DMSO, as well as 4 reference compounds plus 16 high controls and 16 low (inhibited) controls. Predilution plates were prepared by dispensing pipetting 250 nl of compound solutions into 384-well polypropylen plates (daugther plates), using a Hummingwell nanoliter dispenser. Compounds were prediluted by the addition of 49.75 ul complete growth medium. 10 ul of prediluted compound solution were transferred to the cell plate using a 384-well pipettor, resulting in a final DMSO concentration of 0.11%. Cells were incubated for 1 h at […]/5% CO2/95% humidity. The supernatant was removed, the cells were lysed in 20 ul of lysis buffer for AlphaScreen® SureFire® detection.
(§3) For detection of p-AKT(Ser473), the SureFire® p-Akt 1/2 (Ser473) Assay Kit (PerkinElmer, U.S.A.) was used. 5 ul of cell lysate was transferred to 384-well low volume Proxiplates for detection using a 384-well pipettor. Addition of AlphaScreen® SureFire® reagents was done according to the manufacturer's protocol. First, 5 ul of reaction buffer plus activation buffer mix containing AlphaScreen® acceptor beads was added, the plate was sealed, and incubated on a plate shaker for 2 hours at room temperature. Second, 2 ul of dilution buffer containing AlphaScreen® donor beads was added, and the plate was incubated on plate shaker as above for a further 2 hours. The plate was read on an AlphaScreen® compatible plate reader, using standard AlphaScreen® settings. Alternatively, p-AKT(Ser473) was detected with the CisBio HTRF Assay Kit: As positive control, 0.9 mM of 1-(3-(trifluoromethyl)-4-(piperazin-1-yl)phenyl)-8-(6-methoxypyridin-3-yl)-3-methyl-1H-imidazo[4,5-c]quinolin-2(3H)-one maleic acid salt in 90% (v/v) DMSO was added to the compound master plate. For compound testing, the cells were seeded at a density of 4000 (Rat-1_PI3Kdelta), 8000 (Rat-1_PI3Kalpha), or 6500 (Rat-1_PI3Kbeta) cells in 30 ul complete growth medium into 384-well plates, with a plastic surface promoting the adhesion of cells and their growth (assay plates) and were grown at 37° C./5% CO2/90% humidity for 24 h. Some 10 ul of the compound predilutions from the daughter plate were then transferred to the cells. After treatment with compound for 1 h, medium was removed and cells were lysed by the addition of 20 ul lysis buffer supplemented with blocking buffer. Detection of p-AKT(Ser473) was performed with the HTRF pAKT (Ser473) assay kit according to the manufacturer's instructions using 16 ul of cell lysate in a total detection volume of 20 ul.

[2] = biological target: human phosphoinositide-3 kinase (PI3K) delta (Homo sapiens (Human), UniProt O00329); assay: PI3K-mediated Akt 1/2 (S473) phosphorylation in Rat-1 cells overexpressing PI3K delta; type: cell-based; conditions: cellular assay, p-AKT(Ser473), read-out: Cell PI3K delta IC50
human phosphoinositide-3 kinase (PI3K) delta, sequence (O00329 whole entry): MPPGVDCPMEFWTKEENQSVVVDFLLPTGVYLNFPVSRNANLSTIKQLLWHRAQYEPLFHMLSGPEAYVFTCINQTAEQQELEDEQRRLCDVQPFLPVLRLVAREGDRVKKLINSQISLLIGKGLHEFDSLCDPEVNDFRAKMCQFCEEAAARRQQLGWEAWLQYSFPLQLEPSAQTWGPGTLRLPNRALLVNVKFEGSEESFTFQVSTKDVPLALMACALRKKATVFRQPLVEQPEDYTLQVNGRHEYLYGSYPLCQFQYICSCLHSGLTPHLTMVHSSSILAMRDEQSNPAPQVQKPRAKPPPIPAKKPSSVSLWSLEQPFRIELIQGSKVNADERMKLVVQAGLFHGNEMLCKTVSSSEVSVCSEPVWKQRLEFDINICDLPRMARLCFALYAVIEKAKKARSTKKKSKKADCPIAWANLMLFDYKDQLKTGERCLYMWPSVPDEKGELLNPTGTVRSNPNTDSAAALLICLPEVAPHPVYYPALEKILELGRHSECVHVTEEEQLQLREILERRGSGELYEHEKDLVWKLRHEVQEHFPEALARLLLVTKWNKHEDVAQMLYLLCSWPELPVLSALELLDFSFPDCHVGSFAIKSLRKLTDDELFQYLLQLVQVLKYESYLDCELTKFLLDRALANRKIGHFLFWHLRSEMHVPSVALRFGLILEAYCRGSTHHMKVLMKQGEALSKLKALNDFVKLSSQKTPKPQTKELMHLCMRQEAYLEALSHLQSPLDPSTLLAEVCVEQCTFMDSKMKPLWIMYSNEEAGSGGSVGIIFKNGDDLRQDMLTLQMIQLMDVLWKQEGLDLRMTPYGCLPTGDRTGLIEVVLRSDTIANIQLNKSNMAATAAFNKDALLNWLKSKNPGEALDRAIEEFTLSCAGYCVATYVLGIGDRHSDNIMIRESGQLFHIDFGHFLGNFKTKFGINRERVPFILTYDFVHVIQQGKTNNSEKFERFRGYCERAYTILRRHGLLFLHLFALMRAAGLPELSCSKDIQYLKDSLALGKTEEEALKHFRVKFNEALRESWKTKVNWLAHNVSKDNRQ
human phosphoinositide-3 kinase (PI3K) delta, sequence (Q63787 whole entry partner): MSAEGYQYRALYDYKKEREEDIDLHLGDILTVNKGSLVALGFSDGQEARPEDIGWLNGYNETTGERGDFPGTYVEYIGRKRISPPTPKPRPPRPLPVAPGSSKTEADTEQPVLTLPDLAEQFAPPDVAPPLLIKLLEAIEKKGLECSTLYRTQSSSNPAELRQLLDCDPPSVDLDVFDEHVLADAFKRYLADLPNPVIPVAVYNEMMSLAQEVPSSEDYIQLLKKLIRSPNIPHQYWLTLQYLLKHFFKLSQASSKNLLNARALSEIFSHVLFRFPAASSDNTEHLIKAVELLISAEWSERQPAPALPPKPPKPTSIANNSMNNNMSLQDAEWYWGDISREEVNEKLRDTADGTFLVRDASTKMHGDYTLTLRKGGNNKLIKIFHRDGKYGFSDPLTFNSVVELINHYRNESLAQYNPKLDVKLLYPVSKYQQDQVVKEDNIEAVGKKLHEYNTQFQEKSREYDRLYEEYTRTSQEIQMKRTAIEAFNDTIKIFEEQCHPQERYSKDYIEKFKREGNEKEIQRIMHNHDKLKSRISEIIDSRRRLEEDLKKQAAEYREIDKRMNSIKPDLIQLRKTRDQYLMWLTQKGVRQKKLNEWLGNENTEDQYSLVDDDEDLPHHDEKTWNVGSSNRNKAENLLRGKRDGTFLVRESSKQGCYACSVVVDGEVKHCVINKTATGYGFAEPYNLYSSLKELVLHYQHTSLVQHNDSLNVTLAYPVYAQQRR
Description: as §1, §2, §3

[3] = biological target: PI 3-Kinase Gamma (Homo sapiens (Human), UniProt P48736); assay: Cellular U937 AKT assay for PI 3-kinase gamma; type: cell-based; conditions: U937 cells, MIP1α-stimulated AKT phosphorylation, read-out: Cell PI3K gamma IC50
PI 3-Kinase Gamma, sequence (P48736 whole entry): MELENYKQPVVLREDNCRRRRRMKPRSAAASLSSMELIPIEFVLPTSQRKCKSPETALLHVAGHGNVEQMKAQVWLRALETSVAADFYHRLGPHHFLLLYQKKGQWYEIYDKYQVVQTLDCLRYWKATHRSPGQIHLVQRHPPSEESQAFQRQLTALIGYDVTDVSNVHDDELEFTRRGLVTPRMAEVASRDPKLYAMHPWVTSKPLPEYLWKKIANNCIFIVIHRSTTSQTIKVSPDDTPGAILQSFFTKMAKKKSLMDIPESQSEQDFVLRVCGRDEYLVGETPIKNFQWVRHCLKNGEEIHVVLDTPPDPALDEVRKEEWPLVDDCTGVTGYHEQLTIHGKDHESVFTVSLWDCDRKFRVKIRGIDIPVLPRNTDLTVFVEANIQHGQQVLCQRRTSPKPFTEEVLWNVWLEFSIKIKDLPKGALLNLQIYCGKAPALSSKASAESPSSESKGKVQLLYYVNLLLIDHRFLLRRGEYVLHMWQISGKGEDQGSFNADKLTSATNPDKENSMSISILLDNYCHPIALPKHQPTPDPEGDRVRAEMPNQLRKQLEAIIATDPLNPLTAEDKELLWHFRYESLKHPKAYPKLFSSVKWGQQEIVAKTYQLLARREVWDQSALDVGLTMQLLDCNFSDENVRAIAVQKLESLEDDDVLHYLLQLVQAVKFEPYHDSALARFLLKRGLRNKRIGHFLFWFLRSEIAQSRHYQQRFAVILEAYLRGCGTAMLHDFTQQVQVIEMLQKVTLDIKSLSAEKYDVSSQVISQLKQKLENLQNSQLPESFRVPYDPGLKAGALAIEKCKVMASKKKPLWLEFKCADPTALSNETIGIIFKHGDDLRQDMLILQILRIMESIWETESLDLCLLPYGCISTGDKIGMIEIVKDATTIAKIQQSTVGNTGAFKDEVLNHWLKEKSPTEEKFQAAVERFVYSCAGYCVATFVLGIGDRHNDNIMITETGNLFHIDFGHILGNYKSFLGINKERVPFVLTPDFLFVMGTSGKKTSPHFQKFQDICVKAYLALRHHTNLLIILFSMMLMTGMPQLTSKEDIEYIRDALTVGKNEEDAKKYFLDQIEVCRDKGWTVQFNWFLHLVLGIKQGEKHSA
Description: The U937 monocyte cell line is maintained in a basal medium of RPMI 1640 supplemented with 10% heat inactivated FCS, 100 U/ml Penicillin, 100 ug/ml streptomycin and 2 mM L-glutamine (Invitrogen). U937 suspension culture is maintained by seeding cells at a density of 0.125×10^6 cells per ml in fresh medium every three or four days. Cells are incubated at 37° C., 5% CO2. […] Before beginning the cell manipulations described below, the MSD (Meso Scale Discovery) assay plate is blocked by addition of 150 ul/well blocking buffer supplied and incubated with shaking for a minimum of one hour at room temperature. All steps of the assay must be performed quickly, with accurately timed incubation periods and observing temperature controls where indicated. […] Falcon tube, counted and centrifuged for eight minutes at 300 g at room temperature. Supernatant is aspirated, the cell pellet resuspended and washed once in HBSS (Hank's Balanced Salt Solution) by centrifugation for eight minutes at 300 g at room temperature. The cell pellet is resuspended in HBSS to a concentration of 4×10^6 per ml, and 100 μL of cell suspension added to each well of a flat-bottomed 96-well tissue culture plate. Assay plates are incubated for 1.5 hours at 37° C., 5% CO2 to allow background AKT phosphorylation to reduce before the compound stimulation step. […] Compound concentrations at this stage are 4-times the final concentration required in the assay plate. Cells are stimulated with compound or HBSS 0.8% DMSO by direct transfer of 50 ul/well from the compound dilution plate. The assay plate containing compound-treated cells is then incubated for 30 minutes at 37° C. A standard plate layout is used for all experiments. Compound-treated cells, in addition to positive control wells (“max MIP1α”), are stimulated with 50 μL per well of 40 ng/ml MIP1α (R&D Systems catalogue number 270-LD, lyophilized stock reconstituted to 50 μg/ml with PBS 0.1% BSA). Negative control wells (“min HBSS”), are stimulated with 50 μl/well of HBSS in the absence of MIP1α. […] Cells are incubated with MIP1α for 3 minutes, at 37° C., 5% CO2. After the three minute stimulation period, the assay plate is kept ice cold at all times. Assay plates are centrifuged for 2 minutes at 300 g, 4° C. and supernatant is removed by gently inverting, and then blotting the plate on tissue. Cells are then washed by gentle addition of 150 μL/well of ice cold HBSS and centrifugation at 300 g, for 5 minutes at 4° C. Supernatant is aspirated and the plate blotted as described above. The plate is placed on ice and cells are immediately treated with 35 μL per well of ice cold lysis buffer, prepared according to the kit instructions (per assay plate, to 5 ml of Tris lysis buffer add 100 μl of 50× protease inhibitor solution and 50 μl of each 100× phosphatase inhibitor solutions I and II). Plates are incubated on ice for 20 minutes before centrifugation at 841 g for 5 minutes, 4° C. Block buffer is aspirated from the MSD plate, and the plate washed four times with 300 μl/well Tris wash buffer. 25 μL of cell lysate is then transferred from the assay plate to the washed MSD plate which is sealed and incubated at room temperature for one hour with shaking. The plate is washed four times with 300 μL per well of Tris wash buffer before addition of 25 μL per well of sulfo-tag anti-total AKT/pAKT detection antibody (60 μl of 50× antibody stock is diluted in 1 ml block buffer mixed with 2 ml wash buffer) and incubated at room temperature for one hour with shaking. The plate is washed four times with 300 μl per well of Tris wash buffer and 150 μl per well of Read buffer is added, taking care to avoid the introduction of bubbles. The plate is immediately read using an MSD SECTOR Imager 6000. Results are exported in Excel and the percentage of phosphorylated AKT is calculated using the equation: % Phosphoprotein=((2*Phospho signal)/(Phospho signal+Total signal))*100. […]

human phosphoinositide-3 kinase (PI3K) alpha, sequence (P42336 whole entry): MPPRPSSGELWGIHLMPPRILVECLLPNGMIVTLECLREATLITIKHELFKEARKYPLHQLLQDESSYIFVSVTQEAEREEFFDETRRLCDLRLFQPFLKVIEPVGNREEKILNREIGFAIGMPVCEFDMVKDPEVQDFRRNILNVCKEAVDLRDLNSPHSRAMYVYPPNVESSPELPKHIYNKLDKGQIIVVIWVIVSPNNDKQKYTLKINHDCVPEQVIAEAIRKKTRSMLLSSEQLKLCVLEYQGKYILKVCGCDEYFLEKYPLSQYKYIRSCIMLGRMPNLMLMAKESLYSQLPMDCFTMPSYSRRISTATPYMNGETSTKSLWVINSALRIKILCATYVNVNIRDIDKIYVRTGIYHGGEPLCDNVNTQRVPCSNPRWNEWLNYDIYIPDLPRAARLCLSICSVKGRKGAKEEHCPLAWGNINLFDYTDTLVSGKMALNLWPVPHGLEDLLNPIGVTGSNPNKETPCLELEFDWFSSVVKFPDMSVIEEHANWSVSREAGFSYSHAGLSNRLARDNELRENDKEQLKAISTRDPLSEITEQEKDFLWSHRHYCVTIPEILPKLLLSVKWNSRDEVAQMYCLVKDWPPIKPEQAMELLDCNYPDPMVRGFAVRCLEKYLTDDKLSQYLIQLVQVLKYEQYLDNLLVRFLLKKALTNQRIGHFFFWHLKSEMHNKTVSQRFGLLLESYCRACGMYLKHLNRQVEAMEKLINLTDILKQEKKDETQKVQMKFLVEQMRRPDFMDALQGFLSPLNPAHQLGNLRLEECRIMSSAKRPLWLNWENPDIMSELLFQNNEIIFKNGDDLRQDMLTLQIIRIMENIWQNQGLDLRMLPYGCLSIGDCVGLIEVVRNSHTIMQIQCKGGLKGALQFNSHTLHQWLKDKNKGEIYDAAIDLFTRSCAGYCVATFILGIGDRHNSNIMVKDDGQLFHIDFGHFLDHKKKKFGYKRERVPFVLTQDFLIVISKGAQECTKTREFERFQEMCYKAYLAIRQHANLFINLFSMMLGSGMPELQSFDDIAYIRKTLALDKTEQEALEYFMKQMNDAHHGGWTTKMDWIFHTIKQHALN
human phosphoinositide-3 kinase (PI3K) alpha, sequence (Q63787 whole entry partner): as the sequence (Q63787 whole entry partner) above

`Cc1ncc(-c2cccc3nc([C@@H]4C[C@H](O)CN4c4nc(N)nc(C)c4C#N)n(-c4ccccc4)c(=O)c23)cn1` [Example 23, 2-Amino-4-((2S,4S)-4-hydroxy-2-(5-(2-methylpyrimidin-5-yl)-4-oxo-3-phenyl-3,4-dihydroquinazolin-2-yl)pyrrolidin-1-yl)-6-methylpyrimidine-5-carbonitrile] was tested, and the IC50 [1] was > 10 µM, the IC50 [2] was 0.013 µM and the IC50 [3] was 0.011 µM.
